The source of these data is patent US7884115B2, “Methods and compositions for the treatment of pain and other neurological conditions” (Allergan, Inc., priority 2004, dated 2011).

Data set [1] has as its system allodynia induced by sulprostone. Kind of data set: Mouse sulprostone model of allodynia. In kind it is in vivo. The note with it: for attenuation of the allodynic response (analgesic activity): up to 1 mg/kg, 15 min before sulprostone 300 ng/kg IP, FIG. 3. On the procedure: In this alternative model of chronic pain, allodynia can be induced in mice through intraperitoneal treatment of the animals with 300 ng/kg sulprostone (prostaglandin E2 receptor agonist) in 50% DMSO and in a volume of 5 μl. In this model, the pain response to stroking the flank with a paint brush is scored 8 times over a 35 minute period starting 15 minutes following spinal administration of sulprostone. Minami et al., 57 Pain 217-223 (1994), hereby incorporated by reference herein. Sulprostone treatment alone elicits a score of 12-13 on a 16-point scale.
In either model, the compounds are formulated in d-H2O and given in a volume of 1 ml/kg body weight for intraperitoneal (IP) dosing.
Six mice per group are rendered allodynic by injection of one of the following agents: 300 ng/kg sulprostone in DMSO IP, 100 ng/kg phenylephrine (PE) in dH2O IP, or 100 ng NMDA in DMSO intrathecally (IT). Fifteen minutes before administration of the allodynia-inducing agents, the experimental mice are given 1 mg/kg NB-DNJ. Thirty (30) minutes following administration of NB-DNJ, the allodynic response is monitored as described by brushing the flank of each mouse with a paint brush.
Five to six mice per group are rendered allodynic by injection of 300 ng/kg sulprostone IP. Fifteen minutes before inducement of an allodynic response, experimental mice are given one of the following: 1 mg/kg, 300 μg/kg, and 100 μg/kg NB-DNJ; 1 mg/kg N-butyldeoxymannojirimycin; 1 mg/kg N-5-carboxy-1-deoxynojirimycin; 1 mg/kg N-dodecyldeoxynojirimycin; 1 mg/kg N-ethyl-1-deoxynojirimycin; 1 mg/kg, 300 μg/kg, and 30 μg/kg D-glucaro-delta-lactam; 1 mg/kg 4-O-a-D-glucopyranosylmoranoline; 1 mg/kg nojirimycin bisulfite; 1 mg/kg nojirimycin-1-sulfonic acid; 1 mg/kg N-(n-nonyl)deoxynojirimycin; 1 mg/kg N(7-oxadecyl)deoxynojirimycin; and 1 mg/kg N-(7-oxa-9,9,9-trifluorononyl)deoxynojirimycin. The DMSO vehicle and sulprostone alone are used as controls.
Starting thirty (30) minutes following administration of NB-DNJ, the allodynic response of each mouse was monitored by brushing the flank of the mouse with a paint brush.
Five to six mice per group are rendered allodynic by injection of one of the following: 300 ng/kg sulprostone IP, 100 ng/kg phenylephrine (PE) IP, or 100 ng NMDA intrathecally (IT). Fifteen minutes prior to the induction of allodynia, the mice are given D-glucaro-delta-lactam IP at […], or 1 mg/kg. PE or NMDA-treated mice are given 1 mg/kg D-glucaro-delta-lactam IP.

Data set [2] relates to primary rat brain cortical neurons treated with kainate. Kind of data set: Kainate-induced excitotoxicity in primary cortical neurons (LDH release). In kind it is cell-based. On the procedure: (§1) Primary rat brain cortical neurons were cultured as follows. In brief, rat cerebral cortices were removed from brains of the 16 day-old-fetal rats. The neocortices were gently triturated and plated on 24 well plates (300,000 viable cells/cm2) in plating Modified Eagle's Medium (MEM) supplemented with 10% horse serum, 10% fetal calf serum and 2 mM L-glutamine. Cultures were maintained at 37 C in a humidified 5% CO2 atmosphere.
(§2) After 4 days' growth (DIV 4), half of the medium was replaced by a medium identical to the plating medium but lacking calf serum. At DIV4, 10 μM 5-fluoro-2-deoxyuridine was included to each well to halt overgrowth of glia. Mixed cultures of neurons and glia were then fed at DIV7 and DIV11 with MEM plus 5% horse serum previously conditioned by growth with cortical astrocytes for 24 h.
Excitotoxicity was induced in these cells by addition of 50 μM kainate or 20 μM N-methyl-D-aspartate plus 10 μM D-serine to each well.
Under the experimental conditions used, i.e. after 6 hours addition of excitotoxic agent, 40% toxicity is generally observed and measured by determination of the amount of lactate dehydrogenase (LDH) released into the medium following membrane degradation. Such assay methods are well-known; a kit for conducting a homogeneous form of the LDH assay format is sold by Promega under the name CytoTox ONE® Homogenous Membrane Integrity Assay. Overall cell injury was assessed microscopically under phase-contrast optics or by measuring amount of LDH released into the bathing medium 24 hr after neurotoxic insults (see, e.g., Koh and Choi, J. NEUROSCI. METHODS 20: 83-90, 1987), hereby incorporated by reference herein.
[…] The final results are normalized optical density (OD) values (treated cells/untreated control cells), where a value of 1 represents 100% neuronal survival and a value of 0.6 represents 60% survival.
In general terms: LDH in the medium is a marker of cell lysis.

The subject of data set [3] is primary rat brain cortical neurons treated with NMDA plus D-serine. Kind of data set: NMDA/serine-induced excitotoxicity in primary cortical neurons (LDH release). The conditions noted are these: 20 μM NMDA plus 10 μM D-serine, 3 h or 16 h preincubation; FIGS. 8A and 8B. In kind it is cell-based. How it is done: as §1
After 4 days' growth (DIV 4), half of the medium was replaced by a medium identical to the plating medium but lacking calf serum. At DIV4, 10 μM 5-fluoro-2-deoxyuridine was included to each well to halt overgrowth of glia. Mixed cultures of neurons and glia were then fed at DIV7 and DIV11 with MEM plus 5% horse serum previously conditioned by growth with cortical astrocytes for 24 h. […]
(§3) Under the experimental conditions used, i.e. after 6 hours addition of excitotoxic agent, 40% toxicity is generally observed and measured by determination of the amount of lactate dehydrogenase (LDH) released into the medium following membrane degradation. […] Overall cell injury was assessed microscopically under phase-contrast optics or by measuring amount of LDH released into the bathing medium 24 hr after neurotoxic insults (see, e.g., Koh and Choi, J. NEUROSCI. METHODS 20: 83-90, 1987), hereby incorporated by reference herein. […]

In data set [4] the test system is primary rat brain cortical neurons. Kind of data set: Intrinsic cytotoxicity in neuronal cultures. The class given is cell-based. How it is done: as §1, §2, §3
For data set [5] the following is noted: cited from earlier work.

Entries after “also recorded” stand apart in the source; their conditions may differ.

As for `CCCCN1C[C@H](O)[C@@H](O)[C@H](O)[C@H]1CO` [NB-DNJ, N-butyl-1-deoxy-nojirimycin], the “reversal of the allodynic response” value in data set [1] (1 mg/kg given 15 min before sulprostone 300 ng/kg IP, FIG. 1) is given as “significant reversal”. The “attenuation of the allodynic response (analgesic activity)” value in data set [1] is “attenuate the allodynic response”. The “attenuation of kainate-induced excitotoxicity” value in data set [2] (50 μM kainate, compound added without pre-incubation, FIG. 7A) was “attenuation of kainate-induced excitotoxicity; also recorded: active without any preincubation”. The neuronal death result in data set [2] (kainate-induced toxicity, various concentrations) is recorded as “reduced neuronal death in a dose-dependent manner”; in data set [3], “reduced neuronal death in a dose-dependent manner”. In addition, the intrinsic cytotoxicity entry in data set [4] was “do not show any significant intrinsic cytotoxicity”. The aqueous solubility entry in data set [5] is reported as “greater than 1000 mg/ml”.
In the case of `O=C(O)[C@H]1NC(=O)[C@H](O)[C@@H](O)[C@@H]1O` [D-glucaro-delta-lactam], the “attenuation of the allodynic response (analgesic activity)” value in data set [1] is listed as “attenuate the allodynic response”.
